Test results reported in US20240139148A1, “COMPOSITIONS AND METHODS FOR TREATING NON-TUBERCULOUS MYCOBACTERIAL INFECTIONS” (priority 2021, published 2024).
≈ marks a conversion by molar mass, not a printed value. Like-named read-outs stand apart in the source and are kept apart here.

Assays:
MabsΔdosRS [1] = type: cell-based, M. abscessus subsp. abscessus; details: for decrease in survival compared to the DMSO-treated mutant control: 7 d under hypoxia, AMK 64 mg L^−1, AZI 32 mg L^−1, CFZ 2 mg L^−1; for susceptibility of the dosRS mutant to AMI or AZI after DosS inhibitor treatment: 40 μM DosS inhibitor, AMI 64 mg L^−1, AZI 32 mg L^−1, 7 d hypoxia; for decrease in viability compared to DMSO control: 40 μM, 7 d of hypoxia
[2] = system: MabsΔdosRS complemented with dosRS; type: cell-based, M. abscessus subsp. abscessus; details: for tolerance to antibiotics under hypoxia: dosRS complemented mutant, 7 d treatment, AMK 64, AZI 32, CFZ 2, IMI 32 mg L^−1; for decrease in viability compared to DMSO-treated controls: dosRS complemented strain, 40 μM, 7 d of hypoxia
WT Mabs ATCC 19977 [3] = type: cell-based, M. abscessus subsp. abscessus; details: for tolerance to antibiotics under hypoxia: 7 d treatment, AMK 64, AZI 32, CFZ 2, IMI 32 mg L^−1; for decrease in viability compared to DMSO-treated controls: WT strain, 40 μM, 7 d of hypoxia; for tolerance of DosS inhibitor-treated cells to AZI: AZI for 7 d under hypoxia; for tolerance of DosS inhibitor-treated cells to CFZ: CFZ for 7 d under hypoxia
Mabs ATCC 19977 biofilms = assay: Biofilm dispersal assay on established 4-d old biofilms; type: cell-based, M. abscessus subsp. abscessus; details: 24 h in PBS
WT Mabs ATCC 19977 [4] = assay: Biofilm formation assay in SCFM (crystal violet staining); type: cell-based, M. abscessus subsp. abscessus; details: Mycobacteroides abscessus, ATCC19977, 120 h, read-out: IC50 values (required to inhibit 50% of biofilm formation)
[5] = system: NO-signaling (dosR induction); assay: NO signaling: RT-qPCR of dosR after Spermine NONOate; type: cell-based, M. abscessus subsp. abscessus; details: 50 μM inhibitor for 1 h, then Spermine NONOate 50 μM for 40 min
Protocol: FIG. 18: Effect of DosS inhibitors on NO signaling. Mabs ATCC 19977 was grown to OD ˜0.3 in 7H9-ADC-Tween 80, treated for 1 h with either DMSO (control) or 50 μM of DosS inhibitors, followed by addition of Spermine NONOate (50 μM final concentration). […] Ratios of dosR/sigA mRNA are means±SD (n=3 RNA extractions and RT-qPCR reactions).
Since the DosRS pathway of MABSC has been reported to be induced by NO, RT-qPCR was used to determine whether ART, OZ439, and MSU-39446 inhibited the induction of DosR-regulated genes in WT Mabs ATCC 19977 following treatment with spermine/nitric oxide (Spermine/NO) for 40 min.

[6] = target: Mabs ATCC 19977 DosS (MAB_3890c) (Mycobacteroides abscessus, UniProt B1MH83); assay: UV-visible spectroscopy assay of DosS heme redox status; type: biochemical, M. abscessus subsp. abscessus; details: 100 μM; DTN-reduced DosS (427 nm); at time 0
Description: FIG. 7: Inhibition of the sensor kinase heme of DosS by ART, OZ439 and MSU-39446. UV-visible spectra of DosS showing treatment with dithionite (DTN) reduces the heme, which is the “on” state for the kinase. ART, OZ439 and MSU-39446, but not the degassed DMSO control, oxidize the heme.
UV-visible spectroscopy assay and mass spectrometry. A recombinant form of Mabs ATCC 19977 DosS (MAB_3890c) was produced in E. coli BL21(DE3) using the pET14b expression system (Novagen, Madison, WI) and pGro7, and purified essentially as described. Briefly, His-DosS expression was induced by isopropyl-thio-β-D-galactopyranoside (IPTG, 0.5 mM) at 16° C. for 20 h. The cell pellet was suspended in lysis buffer (50 mM sodium phosphate (pH 7.6), 10% glycerol, 200 mM sodium chloride, 1% Triton X-100, 0.5 mg mL^−1 lysozyme, 0.1 mg mL^−1 PMSF) and the cell suspension was incubated with shaking at 37° C. for 30 min prior to lysis using a French press (1400-1800 PSI). The soluble extract was applied to a Co^2+ column (Clontech) and washed with washing buffers (with or without 20 mM imidazole in 50 mM sodium phosphate (pH 7.6), 10% glycerol and 500 mM sodium chloride). […] The absorption spectrum of Mabs DosS ([…]) was analyzed as previously described. […] The UV-visible spectra were recorded for kinetic changes over 2 h using a UV-1800 spectrophotometer (Shimadzu). […]

Mabs ATCC 19977 = assay: MIC determination (resazurin blue test); type: cell-based, M. abscessus subsp. abscessus; details: Mycobacteroides abscessus, ATCC19977, 120 h, read-out: Minimum Inhibitory Concentrations (MICs)
MabsΔdosRS [7] = assay: RNA-seq transcriptional profiling under microaerophilic conditions, dosRS KO mutant; details: 20 μM
WT Mabs ATCC 19977 [8] = assay: Acute SCID mouse model of MABSC infection; details: SCID mice
WT Mabs ATCC 19977 [9] = assay: Chronic SCID mouse model of MABSC infection; details: SCID mice; 50 mg/kg gavage every other day for 28 d
in vivo = details: SCID, mouse, po, 50 mg/kg
Protocol: (A) Exposure of OZ439 in Mabs ATCC 19977-infected SCID mice. In the acute model, mice received OZ439 orally (200 mg/kg) every other d for 14 d. In the chronic model, mice received OZ439 orally (50 mg/kg) every other d for 28 d. Shown are the averages (±SD) of lung and plasma concentrations 2 and 48 hs after the last dosing. Two mice were used per time point in the acute model. Four mice were used per time point in the chronic model.
(A) Exposure of OZ277 in Mabs ATCC 19977-infected SCID mice. Mice received OZ277 orally (200 mg/kg) daily for 14 days. Shown are the averages (±SD) of lung and plasma concentrations 2 and 24 hours after the last dosing. Two mice were used per time point.
Four to eight Mabs ATCC 19977-infected SCID mice (2 to 4 mice per time point) having received OZ277 and OZ439 as stand-alone drugs by gavage were ethically euthanized on the last day of the experiment for comparison of drug concentrations in the plasma and lung tissues 2 and 24 h (OZ277) or 2 and 48 h (OZ439) after the last dose. For quantitation of OZ277 and OZ439 by HPLC coupled to tandem mass spectrometry (LC-MS/MS), 1 mg mL^−1 DMSO stock solutions of OZ277 and OZ439 were serially diluted in 50/50 acetonitrile/water to create standard curves and quality control spiking solutions. […] Lung tissues were weighed and homogenized in 19 volumes of PBS containing 1% formic acid to 1 part tissue that was pre-chilled. […]

[10] = 5 d of growth in SCFM, poly-D-lysine-coated plates
[11] = in SCFM and cation-adjusted Mueller-Hinton II media, 5 d at 37° C., higher concentrations not tested due to solubility
[12] = 200 mg/kg gavage for 14 days (OZ439 every other day)

Mabs ATCC 19977 DosS (MAB_3890c), sequence (B1MH83 entry or part of it): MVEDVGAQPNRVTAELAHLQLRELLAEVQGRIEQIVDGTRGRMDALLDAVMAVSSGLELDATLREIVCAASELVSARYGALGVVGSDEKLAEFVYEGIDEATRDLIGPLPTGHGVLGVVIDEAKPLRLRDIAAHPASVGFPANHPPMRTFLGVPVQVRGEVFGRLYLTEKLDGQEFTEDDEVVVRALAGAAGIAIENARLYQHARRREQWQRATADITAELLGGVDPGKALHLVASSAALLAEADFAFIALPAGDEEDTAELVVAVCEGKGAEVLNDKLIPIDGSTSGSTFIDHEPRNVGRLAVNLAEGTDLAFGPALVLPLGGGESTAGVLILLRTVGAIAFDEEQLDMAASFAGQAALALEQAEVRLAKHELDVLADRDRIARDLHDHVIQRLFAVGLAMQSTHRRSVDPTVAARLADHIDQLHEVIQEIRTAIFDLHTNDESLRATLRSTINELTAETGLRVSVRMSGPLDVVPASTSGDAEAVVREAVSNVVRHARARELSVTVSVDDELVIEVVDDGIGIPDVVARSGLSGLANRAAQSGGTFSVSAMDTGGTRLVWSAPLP
Protocol for THP-1 cells: FIG. 21: THP-1 cells were plated at 1×10^6 cells per ml in 24-well plates and treated for 24 hrs. with 10 ng/ml PMA for differentiating to macrophages. PMA medium was removed, and cells were cultured for an additional 24 hrs. Cells were then treated with either nothing, 300 ng/ml LPS or either Mabs ATCC19977 (smooth) or Mabs ATCC19977 (rough)(aka CipR) at an MOI of 5. After 9 h, the medium was removed and replaced with medium containing either nothing or 6 μM of OZ439 in triplicate wells and THP-1 cells were cultured for an additional 30 hr. Supernatants were harvested and assayed for NO production by the Griess Assay. Half the cells were stained with H2DCFDA for ROS analysis and half were stained for macrophage activation markers and analyzed by flow cytometry. Statistical differences between treatment groups were determined by one way ANOVA with Dunnett's multiple comparison test (*=p<0.05; ***=p<0.001; ****=p<0.0001).
THP-1 cells were plated at 1×10^6 cells per ml in 24-well plates and treated for 24 hrs. with 10 ng/ml PMA for differentiating to macrophages. PMA medium was removed, and cells were cultured for an additional 24 hrs. Cells were then treated with either nothing, 300 ng/ml LPS or either Mabs ATCC19977 (smooth) or Mabs ATCC19977 (rough) (aka CipR) at an MOI of 5. After 9 h, the medium was removed and replaced with medium containing either nothing or 6 μM of OZ439 in triplicate wells and THP-1 cells were cultured for an additional 30 hr. Supernatants were harvested and assayed for NO production by the Griess Assay. Half the cells were stained with H2DCFDA for ROS analysis and half were stained for macrophage activation markers and analyzed by flow cytometry. Statistical differences between treatment groups were determined by one way ANOVA with Dunnett's multiple comparison test (*=p<0.05; ***=p<0.001; ****=p<0.0001).

SMILES: NCC[C@H](O)C(=O)N[C@@H]1C[C@H](N)[C@@H](O[C@H]2O[C@H](CN)[C@@H](O)[C@H](O)[C@H]2O)[C@H](O)[C@H]1O[C@H]1O[C@H](CO)[C@@H](O)[C@H](N)[C@H]1O [AMK, amikacin]
- decrease in survival compared to the DMSO-treated mutant control (MabsΔdosRS [1]): 15%
- tolerance to antibiotics under hypoxia [2]: fully tolerant to all antibiotics
- tolerance to antibiotics under hypoxia (WT Mabs ATCC 19977 [3]; WT): fully tolerant to all antibiotics

SMILES: C[C@@H]1CC[C@H]2[C@@H](C)C(=O)O[C@@H]3O[C@@]4(C)CC[C@@H]1[C@]32OO4 [ART, artemisinin]
- dispersal of established biofilms (Mabs ATCC 19977 biofilms): none of the compounds dispersed the biofilms
- susceptibility of the dosRS mutant to AMI or AZI after DosS inhibitor treatment (MabsΔdosRS [1]): did not significantly enhance the susceptibility
- decrease in viability compared to DMSO control (MabsΔdosRS [1]): did not exhibit any significant decrease in viability
- IC50 (WT Mabs ATCC 19977 [4]; [10]): 0.8 to 1.6 µM
- inhibition of NO-signaling (dosR induction) [5]: none of the inhibitors tested inhibited NO-signaling
- decrease in viability compared to DMSO-treated controls [2]: 0.64 log10 CFU
- decrease in viability compared to DMSO-treated controls (WT Mabs ATCC 19977 [3]): 1.12 log10 CFU
- tolerance of DosS inhibitor-treated cells to AMK (WT Mabs ATCC 19977 [3]; WT, 40 μM DosS inhibitor, AMK for 7 d under hypoxia): decrease in the tolerance
- tolerance of DosS inhibitor-treated cells to AZI (WT Mabs ATCC 19977 [3]; WT, 40 μM DosS inhibitor): decrease in the tolerance
- tolerance of DosS inhibitor-treated cells to CFZ (WT Mabs ATCC 19977 [3]; WT, 40 μM DosS inhibitor): unaffected
- DosS Soret peak position [6]: 421 nm
- MIC (Mabs ATCC 19977; [11]): > 400 µM
- number of downregulated genes in the treated mutant (MabsΔdosRS [7]): 22

SMILES: C[C@H]1[C@H](OC(=O)CCC(=O)O)O[C@@H]2O[C@@]3(C)CC[C@H]4[C@H](C)CC[C@@H]1[C@@]24OO3 [AS, artesunate]
- dispersal of established biofilms (Mabs ATCC 19977 biofilms): none of the compounds dispersed the biofilms
- IC50 (WT Mabs ATCC 19977 [4]): 0.8 to 1.6 µM
- MIC (Mabs ATCC 19977): > 400 µM

SMILES: CC[C@H]1OC(=O)[C@H](C)[C@@H](O[C@H]2C[C@@](C)(OC)[C@@H](O)[C@H](C)O2)[C@H](C)[C@@H](O[C@@H]2O[C@H](C)C[C@H](N(C)C)[C@H]2O)[C@](C)(O)C[C@@H](C)CN(C)[C@H](C)[C@@H](O)[C@]1(C)O [AZI, azithromycin]
- decrease in survival compared to the DMSO-treated mutant control (MabsΔdosRS [1]): 64%
- tolerance to antibiotics under hypoxia [2]: fully tolerant to all antibiotics
- tolerance to antibiotics under hypoxia (WT Mabs ATCC 19977 [3]; WT): fully tolerant to all antibiotics

SMILES: CC(C)/N=c1\cc2n(-c3ccc(Cl)cc3)c3ccccc3nc-2cc1Nc1ccc(Cl)cc1 [CFZ, clofazimine]
- decrease in survival compared to the DMSO-treated mutant control (MabsΔdosRS [1]): 52%
- tolerance to antibiotics under hypoxia [2]: fully tolerant to all antibiotics
- tolerance to antibiotics under hypoxia (WT Mabs ATCC 19977 [3]; WT): fully tolerant to all antibiotics

SMILES: CC(C)(N)CNC(=O)C[C@H]1CC[C@]2(CC1)OO[C@]1(O2)C2CC3CC(C2)CC1C3 [OZ277, arterolane]
- dispersal of established biofilms (Mabs ATCC 19977 biofilms): none of the compounds dispersed the biofilms
- IC50 (WT Mabs ATCC 19977 [4]; [10]): 0.8 to 1.6 µM
- bacterial burdens in lungs and liver, compound by itself (WT Mabs ATCC 19977 [8]; [12]): significantly reduced bacterial burdens
- bacterial burdens in spleen, compound by itself (WT Mabs ATCC 19977 [8]; [12]): significantly reduced bacterial burdens
- adjunct efficacy in combination with antibiotics (AMK, AZI, IMI, CFZ) (WT Mabs ATCC 19977 [8]; 200 mg/kg gavage, vs antibiotics alone): No statistically significant differences
- MIC (Mabs ATCC 19977; [11]): > 400 µM

SMILES: c1cc([C@H]2CC[C@]3(CC2)OO[C@]2(O3)C3CC4CC(C3)CC2C4)ccc1OCCN1CCOCC1 [OZ439, artefenomel]
- dispersal of established biofilms (Mabs ATCC 19977 biofilms): none of the compounds dispersed the biofilms
- susceptibility of the dosRS mutant to AMI or AZI after DosS inhibitor treatment (MabsΔdosRS [1]): did not significantly enhance the susceptibility
- decrease in viability compared to DMSO control (MabsΔdosRS [1]): did not exhibit any significant decrease in viability
- IC50 (WT Mabs ATCC 19977 [4]; [10]): 0.8 to 1.6 µM
- inhibition of NO-signaling (dosR induction) [5]: none of the inhibitors tested inhibited NO-signaling
- expression of macrophage activation markers (THP-1 cells; 6 μM OZ439 alone, non-infected): increased expression of some macrophage activation markers (MHC class II and CD80)
- NO production (Griess Assay) (THP-1 cells; 6 μM, THP-1 infected with Mabs ATCC19977 smooth strain, 30 hr): reverted this activation
- expression of macrophage activation markers (MHC class II, CD80, CD86, CD40) (THP-1 cells; 6 μM, THP-1 infected with Mabs, vs not treated): significant increases in all macrophage activation markers
- ROS (H2DCFDA) (THP-1 cells; 6 μM, absence of Mabs infection): upregulated
- ROS production (H2DCFDA) (THP-1 cells; 6 μM, cultures infected with Mabs (rough or smooth)): decreased
- decrease in viability compared to DMSO-treated controls [2]: 0.72 log10 CFU
- decrease in viability compared to DMSO-treated controls (WT Mabs ATCC 19977 [3]): 1.18 log10 CFU
- tolerance of DosS inhibitor-treated cells to AZI (WT Mabs ATCC 19977 [3]; WT, 40 μM DosS inhibitor): decrease in the tolerance
- tolerance of DosS inhibitor-treated cells to CFZ (WT Mabs ATCC 19977 [3]; WT, 40 μM DosS inhibitor): unaffected
- reduction in bacterial load in the lung (WT Mabs ATCC 19977 [8]; 200 mg/kg gavage every other day for 14 d): ~1.8 log10
- bacterial burdens in lungs and liver, compound by itself (WT Mabs ATCC 19977 [8]; [12]): significantly reduced bacterial burdens
- efficacy by itself (bacterial loads in lungs, liver and spleen) (WT Mabs ATCC 19977 [9]): comparable to that of all four antibiotics
- concentration at 2 h (in vivo): ~6.2 µM
- concentration at 48 h (in vivo): ~3.9 µM
- MIC (Mabs ATCC 19977; [11]): 400 µM (≈ 188 µg/mL)
- number of downregulated genes in the treated mutant (MabsΔdosRS [7]): 10
